Measurements from patent US10865412B2, “Therapeutics targeting IGFBP7 for the treatment or prevention of heart failure and metabolic diseases” (Ottawa Heart Institute Research Corporation, priority 2016, dated 2020).

Key:
[1] = system: IGF-1/Insulin induced AKT and Gsk3β activation; assay: IGF-1/Insulin induced Akt and Gsk3β activation in HCM with internal over-expression of IGFBP7; type: cell-based, human; conditions: HCM transfected with IGFBP7 plasmid, inhibitor 500 nM for 1 h before IGF-1 or Insulin 15 min
[2] = system: IGF-1/Insulin induced AKT activation; assay: IGF-1/Insulin induced AKT/GSK3β activation (immunoblotting) in human cardiac myocytes; type: cell-based; conditions: HCM with IGFBP7 siRNA, ppp pre-treatment 1 or 10 μM for 1 h, IGF-1 (100 ng/ml) 15 min
Protocol: Indeed, in FIG. 9, human cardiac myocytes were treated with (−)control siRNA and IGFBP7 siRNA for 48 h, followed by replacement with basic medium (serum and growth factors withdrew) for 4 h. In FIG. 9(a), the cells were then stimulated with IGF1 (100 ng/ml) or Insulin (4 μg/ml) for 15 min, before lyses of the cell for immunoblotting. Representative immunoblotting of phosphor-AKT, total AKT, phosph-GSK3β and total GSK3β are shown. GAPDH was used as loading control. In FIG. 9(b), before adding IGF-1, cells were pre-treated with IGF-1R inhibitor Picropodophyllin (PPP) ppp at 1 or 10 μM for 1 h, and finally stimulated with IGF-1 (100 ng/ml) for 15 min. Representative immunoblotting of phosphor-AKT and total AKT showing reduced AKT activity in IGFBP7 knock down cells is shown. GAPDH was used as loading control. […] GAPDH were used as loading control.
Whole-cell lysates from tissue and cell samples were prepared on ice with Cell Lysis Buffer (Cell Signaling, 9803) containing a Complete cocktail of proteases inhibitors (Roche Applied Science, 05892791001). […] The supernatants were collected and protein concentrations determined using the Bio-Rad Bradford protein assay (Bio-Rad, 500-0006). […] The intensity of the chemiluminescence signals were detected by using the ChemiDoc XRS+ System (Bio-Rad, 1708265) and quantified using Image Lab software (version 5.2; Bio-Rad). […]

[3] = system: IGF-1 Receptor β and Akt phosphorylation; assay: IGF-1 receptor-dependent signaling (immunoblotting) in IGFBP7 deficient and WT MEF; type: cell-based; conditions: ppp 1 or 10 μM for 1 h, IGF-1 (100 ng/ml) 15 min
[4] = system: IGFBP7 protein; assay: IGFBP7 protein expression (immunoblotting) in rat neonatal cardiomyocytes treated with hypertrophic stimuli; type: cell-based; conditions: vs solvent treated control
Protocol: In order to investigate where Igfbp7 is localized under stress, immunofluorescent staining were used to visualize Igfbp7 in rNCM 2 and 24 hours post treatment. As shown in FIG. 3(b), Igfbp7 were evenly distributed in untreated control cells. Hypertrophic stimuli not only led to increased Igfbp7 expression, but also led to Igfbp7 being localized to the cell membrane. Co-immunostaining with FM1-43 as shown (FIG. 3(c)), upon isoproterenol treatment, Igfbp7 (red) not only moved to cell membrane region, but also co-localized with FM1-43 labeled membrane bound vesicle (green), indicating Igfbp7 was trapped into the membrane bound vesicles for secretion.
NC represents solvent treated control. FIGS. 3(b) and 3(c) show representative confocal microscopy images. […] IGFBP7 was immunofluoresently stained with Alexa Fluor 555 labeled anti-IGFBP7 antibody.
Whole-cell lysates from tissue and cell samples were prepared on ice with Cell Lysis Buffer (Cell Signaling, 9803) containing a Complete cocktail of proteases inhibitors (Roche Applied Science, 05892791001). Lysates were cleared by centrifugation at 12,000 rpm for 10 min. The supernatants were collected and protein concentrations determined using the Bio-Rad Bradford protein assay (Bio-Rad, 500-0006). 20 μg of protein lysate were separated by Bolt Bis-Tris Plus mini Gel System (ThermoFisher) and electrophoretically transferred to PVDF membranes (Bio-Rad, 162-0177). Membranes were incubated overnight at 4° C. with antibodies reactive to the following proteins: IGFBP7 (Abcam, ab171085, 1:1000), CTGF (Abcam, ab6992, 1:1000), 53BP1 (Santa Cruz Biotechnology, sc-22760, 1:200), p21 (Santa Cruz Biotechnology, sc-397, 1:200), Acetyl-p53 (Lys379) (Cell Signaling, #2570, 1:1000), p53 (1C12) (Cell Signaling, #2524, 1:1000), Phospho-IRS-1 (Ser612) (Cell Signaling, #3203, 1:500), Phospho-IRS-1 (Ser318) (Cell Signaling, #5610, 1:500), IRS-1 (Cell signaling, #3407, 1:500), Phospho-Akt (Ser473) (Cell Signaling, #4060, 1:1000), Phospho-Akt (Thr308) (Cell Signaling, #4056, 1:1000), Akt (pan) (Cell Signaling, #4691, 1:1000), Phospho-Erk1/2 (Thr202/Tyr204) (Cell Signaling, #4307, 1:1000), Erk1/2 (Cell Signaling, #9102, 1:1000), Phospho-GSK-3β (Ser9) (Cell Signaling, #9323, 1:1000), GSK-3β (Cell Signaling, #9315, 1:1000), Phospho-IGF-1 Receptor β ((Thy1135) (Cell Signaling, #3918, 1:500), IGF-1 Receptor β (Cell Signaling, #9750, 1:500). […] The intensity of the chemiluminescence signals were detected by using the ChemiDoc XRS+ System (Bio-Rad, 1708265) and quantified using Image Lab software (version 5.2; Bio-Rad). […]

[5] = system: IGF-1/Insulin induced AKT and Gsk3β activation; assay: Effect of external recombinant IGFBP7 protein on IGF-1/Insulin induced AKT and Gsk3β activation in HCM; type: cell-based, human; conditions: HCM pretreated with recombinant protein for 2 h, then IGF-1 or insulin 15 min
Protocol: HCM were pretreated with recombinant IGFBP7 protein at indicated concentration for 2 h, followed by IGF-1 or insulin induction for 15 min. Vinculin was used as loading control.
Whole-cell lysates from tissue and cell samples were prepared on ice with Cell Lysis Buffer (Cell Signaling, 9803) containing a Complete cocktail of proteases inhibitors (Roche Applied Science, 05892791001). Lysates were cleared by centrifugation at 12,000 rpm for 10 min. The supernatants were collected and protein concentrations determined using the Bio-Rad Bradford protein assay (Bio-Rad, 500-0006). 20 μg of protein lysate were separated by Bolt Bis-Tris Plus mini Gel System (ThermoFisher) and electrophoretically transferred to PVDF membranes (Bio-Rad, 162-0177). […] The intensity of the chemiluminescence signals were detected by using the ChemiDoc XRS+ System (Bio-Rad, 1708265) and quantified using Image Lab software (version 5.2; Bio-Rad). […]
To generate IGFBP7 expression plasmid, human IGFBP7 CDS with 6× His Epitope tag added to the 3′-end were generated by GeneArt gene synthesis and subcloned into pcDNA3.4 TOPO TA Cloning vector (ThermoFisher) to make plasmid pcDNA3.4-hIGFBP7-6× His. […] Expression of secreted IGFBP7-6× His recombinant protein in culture media was monitored daily by immonoblotting with anti 6× His Epitope Tag antibody (ThermoFisher, MA1-21315). […]

C[C@@]1(C(=O)Nc2ccc(F)nc2)CCCN1c1nc(Nc2cc(C3CC3)n[nH]2)c2cccn2n1 [BMS-754807]
IGF-1/Insulin induced AKT and GSK3β activation increased by internal over-expression of IGFBP7 [1]: blocked

COc1cc([C@@H]2c3cc4c(cc3[C@H](O)[C@H]3COC(=O)[C@@H]23)OCO4)cc(OC)c1OC [Picropodophyllin, picropodophyllin]
AKT activation after IGF-1 stimulation in IGFBP7 knock down cells [2]: further reduced
AKT phosphorylation in IGFBP7 deficient MEF [3]: further reduced
AKT phosphorylation in WT MEF [3]: not in WT MEF
IGF-1R phosphorylation in IGFBP7 deficient MEF [3]: further reduced

CC(C)NCC(O)c1ccc(O)c(O)c1 (stereo not shown) [isoproterenol]
IGFBP7 protein expression ([4]; isoproterenol 100 nM): significantly up-regulated

CNC[C@H](O)c1cccc(O)c1 [phenylephrine]
IGFBP7 protein expression ([4]; phenylephrine 200 nM): significantly up-regulated

angiotensin II (DRVYIHPF; Angiotensin-2; UniProt P01019 25-32, looked up) [hypertrophic stimulus]
IGFBP7 protein expression ([4]; 100 nM angiotensin II): significantly up-regulated

insulin
IGFBP7 protein expression ([4]; insulin 4 μg/ml): significantly up-regulated

B1: recombinant IGFBP7 protein: recombinant human IGFBP7 protein with 6× His tag expressed in Expi293F cells (protein, UniProt Q16270 27-282, looked up)
Insulin-like growth …: SSSDTCGPCEPASCPPLPPLGCLLGETRDACGCCPMCARGEGEPCGGGGAGRGYCAPGMECVKSRKRRKGKAGAAAGGPGVSGVCVCKSRYPVCGSDGTTYPSGCQLRAASQRAESRGEKAITQVSKGTCEQGPSIVTPPKDIWNVTGAQVYLSCEVIGIPTPVLIWNKVKRGHYGVQRTELLPGDRDNLAIQTRGGPEKHEVTGWVLVSPLSKEDAGEYECHASNSQGQASASAKITVVDALHEIPVKKGEGAEL
modifications: 6xHis tag
notes: recombinant human IGFBP7 protein with 6× His tag expressed in Expi293F cells
Effect on IGF-1/Insulin induced AKT and Gsk3β activation [5]: no observed effect
